Laboratory results as given in article PMC11274943, “Discovery of Benzisothiazolone Derivatives as Bifunctional Inhibitors of HIV-1 Reverse Transcriptase DNA Polymerase and Ribonuclease H Activities” (Biomolecules, 2024).

Assays:
[1] = test system: Y188C HIV-1 RT RNase H activity; assay: FRET-based RT RNase H cleavage assay, Y188C RT; format: biochemical; conditions: Y188C RT; fold resistance IC50 mutant/IC50 WT
Method: (§1) WT (wild-type) RT, and RTs harboring the NNRTI-resistant mutations K101E, K103N, Y181C, Y188C, G190A and P236L, were overexpressed and purified to homogeneity as described previously. The RT concentration was determined spectrophotometrically at 280 nm using an absorbance coefficient of 260,450 M^−1·cm^−1. The 7-hydroxy tropolone derivative 19,616 (2,7-dihydroxy 2,4,6-cyclo-heptatrien-1-one) was purchased from Molecular Diversity Preservation International (Basel, Switzerland). Nevirapine was purchased from Selleckchem (Houston, TX, USA). The benzisothiazolone derivatives were procured from MolPort (New York, NY, USA) or Enamine (Kyiv, Ukraine). The DNA and RNA oligonucleotides were synthesized and purified by Integrated DNA Technologies (Coralville, IA, USA). All other reagents were of the highest quality available and were used without further purification.
(§2) The following RNA/DNA T/P substrate was used in the present study: an 18-nucleotide RNA template (RNA-18T: 5′-[…]-3′) was annealed to an 18-nucleotide primer (DNA-18T: 5′-[…]-3′), as described previously. Fluorescein and IowaBlack FQTM were covalently attached to the 3′- and 5′-ter-mini of the RNA and DNA oligonucleotides, respectively.
(§3) The FRET-based RNase H cleavage assays were carried out as described previously. Fluorescence was measured with a SpectraMax M2 microplate spectrofluorometer (Molecular Devices, San Jose, CA, USA) using an excitation wavelength of 490 nm and an emission wavelength of 528 nm. Data were analyzed using SoftMax Pro software, version 4.7.1 (Molecular Devices, San Jose, CA, USA).

[2] = biological target: T1, Y188C HIV-1 RT RNase H activity (Human immunodeficiency virus type 1 group M subtype B, UniProt P04585, Y775C); assay: FRET-based RT RNase H cleavage assay, Y188C RT; format: biochemical
T1 construct: made in house
Method: as §1, §2, §3

[3] = test system: K101E HIV-1 RT DNA-dependent DNA polymerase activity; assay: biochemical; format: biochemical; conditions: K101E RT; fold resistance IC50 mutant/IC50 WT
Method: as §1, with “Nevirapine was purchased from Selleckchem (Houston, TX, USA).” left out
(§4) DDDP assays were also performed using a QuantiFluor ONE based spectrophotometric assay to detect double-stranded DNA synthesized by recombinant HIV-1 RT [14]. The reaction contained 40 nM of a template/primer comprising a 200 nt DNA template (5′-[…] […]-[…]-[…] […] […]-3′) annealed to an 18-nucleotide DNA primer (5′-[…]-3′), and a mix of 50 mM Tris-HCl pH 7.8, 50 mM NaCl, 10 mM MgCl2 and 50 µM dNTP. The reactions were stopped after 45 min by adding the detection reagent containing 1 × Quant-Fluor One (Promega) and 12.5 mM ethylenediaminetet-raacetic acid; the samples were transferred to a 96-well black plate, and fluorescence was measured at excitation/emission (490/535 nm).

[4] = biological target: T2, WT HIV-1 RT DNA-dependent DNA polymerase activity (Human immunodeficiency virus type 1 group M subtype B, UniProt P04585); assay: biochemical; format: biochemical
T2 construct: made in house
Method: as §1, with “Nevirapine was purchased from Selleckchem (Houston, TX, USA).” left out
as §4

[5] = biological target: T3, K101E HIV-1 RT DNA-dependent DNA polymerase activity (Human immunodeficiency virus type 1 group M subtype B, UniProt P04585, K688E); assay: biochemical; format: biochemical
T3 construct: made in house
Method: as §1, with “Nevirapine was purchased from Selleckchem (Houston, TX, USA).” left out
as §4

[6] = test system: Y188C HIV-1 RT DNA-dependent DNA polymerase activity; assay: biochemical; format: biochemical; conditions: Y188C RT; fold resistance IC50 mutant/IC50 WT
Method: as §1, with “Nevirapine was purchased from Selleckchem (Houston, TX, USA).” left out
as §4

[7] = test system: Y181C HIV-1 RT DNA-dependent DNA polymerase activity; assay: biochemical; format: biochemical; conditions: Y181C RT; fold resistance IC50 mutant/IC50 WT
Method: as §1, with “Nevirapine was purchased from Selleckchem (Houston, TX, USA).” left out
as §4

[8] = test system: K103N HIV-1 RT DNA-dependent DNA polymerase activity; assay: biochemical; format: biochemical; conditions: K103N RT; fold resistance IC50 mutant/IC50 WT
Method: as §1, with “Nevirapine was purchased from Selleckchem (Houston, TX, USA).” left out
as §4

[9] = test system: G190A HIV-1 RT DNA-dependent DNA polymerase activity; assay: biochemical; format: biochemical; conditions: G190A RT; fold resistance IC50 mutant/IC50 WT
Method: as §1, with “Nevirapine was purchased from Selleckchem (Houston, TX, USA).” left out
as §4

[10] = biological target: T4, Y188C HIV-1 RT DNA-dependent DNA polymerase activity (Human immunodeficiency virus type 1 group M subtype B, UniProt P04585, Y775C); assay: biochemical; format: biochemical
T4 construct: made in house
Method: as §1, with “Nevirapine was purchased from Selleckchem (Houston, TX, USA).” left out
as §4

[11] = biological target: T5, G190A HIV-1 RT DNA-dependent DNA polymerase activity (Human immunodeficiency virus type 1 group M subtype B, UniProt P04585, G777A); assay: biochemical; format: biochemical
T5 construct: made in house
Method: as §1, with “Nevirapine was purchased from Selleckchem (Houston, TX, USA).” left out
as §4

[12] = biological target: T6, Y181C HIV-1 RT DNA-dependent DNA polymerase activity (Human immunodeficiency virus type 1 group M subtype B, UniProt P04585, Y768C); assay: biochemical; format: biochemical
T6 construct: made in house
Method: as §1, with “Nevirapine was purchased from Selleckchem (Houston, TX, USA).” left out
as §4

[13] = test system: P236L HIV-1 RT DNA-dependent DNA polymerase activity; assay: biochemical; format: biochemical; conditions: P236L RT; fold resistance IC50 mutant/IC50 WT
Method: as §1, with “Nevirapine was purchased from Selleckchem (Houston, TX, USA).” left out
as §4

[14] = biological target: T7, P236L HIV-1 RT DNA-dependent DNA polymerase activity (Human immunodeficiency virus type 1 group M subtype B, UniProt P04585, P823L); assay: biochemical; format: biochemical
T7 construct: made in house
Method: as §1, with “Nevirapine was purchased from Selleckchem (Houston, TX, USA).” left out
as §4

[15] = biological target: T8, K103N HIV-1 RT DNA-dependent DNA polymerase activity (Human immunodeficiency virus type 1 group M subtype B, UniProt P04585, K690N); assay: biochemical; format: biochemical
T8 construct: made in house
Method: as §1, with “Nevirapine was purchased from Selleckchem (Houston, TX, USA).” left out
as §4

[16] = test system: HIV-1; assay: Antiviral activity (HIV-1 replication) in TZM-bl cells; format: cell-based; conditions: Human immunodeficiency virus 1, mean ± SD
Method: The genes for Y181C, Y181I, Y181V and Y181F were cloned into HIV-1LAI. NNRTI susceptibility was determined in TZM-bl cells, as described previously.
Next, we re-purchased 10 hit compounds with IC50 values < 1.0 µM for the inhibition of RT RNase H activity that were commercially available in sufficient quantities for further analysis. We assessed their antiviral activity and cytotoxicity in TZM-bl cells, as described previously.

## CCN(CC)S(=O)(=O)c1cccc(-n2sc3ccccc3c2=O)c1 [Compound 4, N,N-diethyl-3-(3-oxobenzo[d]isothiazol-2(3H)-yl)benzenesulfonamide]
[1]
  Inhibition of RT RNase H Activity Fold-R: 4.2
[2]
  IC50: 1.1 ± 0.32 µM
[3]
  Inhibition of RT DNA polymerase activity Fold-R: 1.6
[4]
  IC50: 1.1 ± 0.3 µM
[5]
  IC50: 1.8 ± 0.7 µM
[6]
  Inhibition of RT DNA polymerase activity Fold-R: 0.3
[7]
  Inhibition of RT DNA polymerase activity Fold-R: 0.45
[8]
  Inhibition of RT DNA polymerase activity Fold-R: 1.9
[9]
  Inhibition of RT DNA polymerase activity Fold-R: 1.5
[10]
  IC50: 0.3 ± 0.1 µM
[11]
  IC50: 1.7 ± 1 µM
[12]
  IC50: 0.5 ± 0.2 µM
[13]
  Inhibition of RT DNA polymerase activity Fold-R: 1.5
[14]
  IC50: 1.6 ± 0.9 µM
[15]
  IC50: 2.1 ± 0.7 µM
[16]
  EC50: 3.27 ± 0.49 µM

## CCOC(=O)Cc1csc(-n2sc3ccccc3c2=O)n1 [Compound 2, ethyl 2-(2-(3-oxobenzo[d]isothiazol-2(3H)-yl)thiazol-4-yl)acetate]
[1]
  Inhibition of RT RNase H Activity Fold-R: 4.5
[2]
  IC50: 0.59 ± 0.04 µM
[3]
  Inhibition of RT DNA polymerase activity Fold-R: 1.8
[4]
  IC50: 2.64 ± 1.85 µM
[5]
  IC50: 4.88 ± 1.56 µM
[6]
  Inhibition of RT DNA polymerase activity Fold-R: 0.2
[7]
  Inhibition of RT DNA polymerase activity Fold-R: 0.3
[8]
  Inhibition of RT DNA polymerase activity Fold-R: 1.2
[9]
  Inhibition of RT DNA polymerase activity Fold-R: 0.7
[10]
  IC50: 0.53 ± 0.08 µM
[11]
  IC50: 1.93 ± 0.49 µM
[12]
  IC50: 0.71 ± 0.1 µM
[13]
  Inhibition of RT DNA polymerase activity Fold-R: 1.9
[14]
  IC50: 5.13 ± 1.68 µM
[15]
  IC50: 3.28 ± 1.53 µM
[16]
  EC50: 2.68 ± 0.54 µM

## Cc1ccc(-n2sc3ccccc3c2=O)cc1S(=O)(=O)N1CCCCC1 [Compound 1, 2-(4-methyl-3-(piperidin-1-ylsulfonyl)phenyl)benzo[d]isothiazol-3(2H)-one]
[1]
  Inhibition of RT RNase H Activity Fold-R: 2.0
[2]
  IC50: 0.32 ± 0.01 µM
[3]
  Inhibition of RT DNA polymerase activity Fold-R: 1.2
[4]
  IC50: 5.97 ± 3.1 µM
[5]
  IC50: 7.33 ± 7.05 µM
[6]
  Inhibition of RT DNA polymerase activity Fold-R: 0.02
[7]
  Inhibition of RT DNA polymerase activity Fold-R: 0.1
[8]
  Inhibition of RT DNA polymerase activity Fold-R: 0.6
[10]
  IC50: 0.14 ± 0.01 µM
[11]
  IC50: 1.6 ± 0.88 µM
[12]
  IC50: 0.61 ± 0.06 µM
[13]
  Inhibition of RT DNA polymerase activity Fold-R: 0.4
[14]
  IC50: 2.22 ± 0.18 µM
[15]
  IC50: 3.66 ± 1.84 µM
[16]
  EC50: 1.68 ± 0.94 µM
